Our source for the IC50 values is patent US20070021434A1, “NON-NUCLEOSIDE ANTI-HEPACIVIRUS AGENTS AND USES THEREOF” (Migenix Inc., priority 2005, published 2007).

Structures are written as SMILES. Peptide text beside a SMILES is read from it. * marks the point of attachment. Fmoc = O=C(OCC1c2ccccc2-c2ccccc21)*; Boc = CC(C)(C)OC(=O)*

The target in this assay is HCV RdRp (NS5B) (UniProt P26663). The assay is classed as biochemical, hepatitis C virus.
Sequence of HCV RdRp (NS5B) (P26663 whole entry, looked up): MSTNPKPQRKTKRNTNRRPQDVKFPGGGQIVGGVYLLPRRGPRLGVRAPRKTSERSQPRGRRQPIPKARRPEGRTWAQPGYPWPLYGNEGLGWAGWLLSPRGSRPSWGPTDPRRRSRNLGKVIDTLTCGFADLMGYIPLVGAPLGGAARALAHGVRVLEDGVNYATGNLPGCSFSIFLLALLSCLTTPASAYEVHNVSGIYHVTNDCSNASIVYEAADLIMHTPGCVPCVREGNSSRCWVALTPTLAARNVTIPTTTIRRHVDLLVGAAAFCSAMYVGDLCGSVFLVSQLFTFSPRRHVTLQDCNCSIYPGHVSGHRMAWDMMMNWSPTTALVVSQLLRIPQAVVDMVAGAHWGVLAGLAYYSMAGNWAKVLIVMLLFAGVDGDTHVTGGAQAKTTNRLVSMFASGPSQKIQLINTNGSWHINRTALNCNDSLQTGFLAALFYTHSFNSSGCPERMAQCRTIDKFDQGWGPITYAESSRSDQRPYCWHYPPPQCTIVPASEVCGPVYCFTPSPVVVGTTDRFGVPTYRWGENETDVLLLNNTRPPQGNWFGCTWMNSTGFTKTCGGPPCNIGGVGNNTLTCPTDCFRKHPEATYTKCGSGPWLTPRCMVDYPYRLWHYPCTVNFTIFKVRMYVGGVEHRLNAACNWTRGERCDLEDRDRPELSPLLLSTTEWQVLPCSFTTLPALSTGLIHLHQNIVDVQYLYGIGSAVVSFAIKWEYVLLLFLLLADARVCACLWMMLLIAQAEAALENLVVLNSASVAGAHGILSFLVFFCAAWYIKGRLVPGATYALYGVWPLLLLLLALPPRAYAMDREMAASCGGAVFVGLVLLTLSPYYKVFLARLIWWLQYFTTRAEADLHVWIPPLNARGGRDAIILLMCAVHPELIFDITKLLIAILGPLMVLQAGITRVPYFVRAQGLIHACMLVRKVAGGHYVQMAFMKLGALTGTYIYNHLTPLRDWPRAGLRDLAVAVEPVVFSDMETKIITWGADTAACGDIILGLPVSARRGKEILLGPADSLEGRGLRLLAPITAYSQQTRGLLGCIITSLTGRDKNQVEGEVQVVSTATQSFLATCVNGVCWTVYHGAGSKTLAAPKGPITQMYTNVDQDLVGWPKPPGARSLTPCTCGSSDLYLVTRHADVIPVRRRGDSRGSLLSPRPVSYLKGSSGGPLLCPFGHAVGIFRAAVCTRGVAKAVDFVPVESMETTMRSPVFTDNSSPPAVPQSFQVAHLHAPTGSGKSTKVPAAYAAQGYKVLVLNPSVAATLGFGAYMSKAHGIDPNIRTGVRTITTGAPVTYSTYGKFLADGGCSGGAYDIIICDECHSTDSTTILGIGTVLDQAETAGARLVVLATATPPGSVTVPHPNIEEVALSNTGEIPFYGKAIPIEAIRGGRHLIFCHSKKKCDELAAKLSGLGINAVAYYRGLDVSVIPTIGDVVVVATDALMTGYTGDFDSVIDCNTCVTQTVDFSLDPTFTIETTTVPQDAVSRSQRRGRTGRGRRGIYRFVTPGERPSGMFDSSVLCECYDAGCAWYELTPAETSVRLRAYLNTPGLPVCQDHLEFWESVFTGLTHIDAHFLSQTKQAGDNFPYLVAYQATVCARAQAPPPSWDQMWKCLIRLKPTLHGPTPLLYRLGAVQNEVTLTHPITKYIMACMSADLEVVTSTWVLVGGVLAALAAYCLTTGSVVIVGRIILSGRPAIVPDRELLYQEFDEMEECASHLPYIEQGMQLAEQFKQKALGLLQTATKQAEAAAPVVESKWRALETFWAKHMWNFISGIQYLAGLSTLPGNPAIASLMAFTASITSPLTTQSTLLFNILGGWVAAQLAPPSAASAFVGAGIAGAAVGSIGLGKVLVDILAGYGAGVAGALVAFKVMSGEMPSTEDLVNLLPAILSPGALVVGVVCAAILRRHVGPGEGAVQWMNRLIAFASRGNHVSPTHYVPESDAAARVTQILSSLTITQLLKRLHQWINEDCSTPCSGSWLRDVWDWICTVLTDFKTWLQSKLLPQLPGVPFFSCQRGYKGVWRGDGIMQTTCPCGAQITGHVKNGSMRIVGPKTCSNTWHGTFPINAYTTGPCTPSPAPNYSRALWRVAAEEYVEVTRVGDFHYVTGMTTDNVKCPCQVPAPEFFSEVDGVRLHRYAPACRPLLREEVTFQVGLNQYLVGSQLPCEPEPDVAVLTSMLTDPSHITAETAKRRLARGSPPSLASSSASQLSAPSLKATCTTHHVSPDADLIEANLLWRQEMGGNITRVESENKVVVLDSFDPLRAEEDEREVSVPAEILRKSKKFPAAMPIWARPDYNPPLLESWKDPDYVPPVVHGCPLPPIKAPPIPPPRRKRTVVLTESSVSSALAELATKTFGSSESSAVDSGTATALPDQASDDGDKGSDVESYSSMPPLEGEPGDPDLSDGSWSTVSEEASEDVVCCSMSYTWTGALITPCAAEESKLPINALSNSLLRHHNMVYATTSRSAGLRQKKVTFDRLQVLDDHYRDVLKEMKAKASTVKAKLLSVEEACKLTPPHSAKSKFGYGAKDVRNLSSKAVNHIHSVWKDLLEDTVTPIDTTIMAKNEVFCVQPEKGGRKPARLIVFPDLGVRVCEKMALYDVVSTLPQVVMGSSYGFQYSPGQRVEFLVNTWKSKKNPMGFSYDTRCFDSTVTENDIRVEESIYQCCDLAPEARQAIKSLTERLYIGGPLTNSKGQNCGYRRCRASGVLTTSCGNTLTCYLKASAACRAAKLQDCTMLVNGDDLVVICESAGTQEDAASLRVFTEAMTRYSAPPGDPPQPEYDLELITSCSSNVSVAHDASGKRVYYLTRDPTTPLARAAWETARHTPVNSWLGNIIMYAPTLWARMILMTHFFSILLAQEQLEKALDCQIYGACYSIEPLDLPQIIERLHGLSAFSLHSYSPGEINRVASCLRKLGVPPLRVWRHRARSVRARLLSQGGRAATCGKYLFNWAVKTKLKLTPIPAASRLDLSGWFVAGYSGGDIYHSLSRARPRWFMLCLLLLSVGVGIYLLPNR
`Cc1ccc(NC(=O)C(CCCCNC(=O)CN)NC(=O)OCC2c3ccccc3-c3ccccc32)cc1` [Compound 176, (S)-[5-(2-AMINO-ACETYLAMINO)-1-P-TOLYLCARBAMOYL-PENTYL]-CARBAMIC ACID 9H-FLUOREN-9-YLMETHYL ESTER]: the IC50 was under 10 µM.
Next, `Cc1ccc(NC(=O)[C@H](CCCCN)NS(=O)(=O)c2cccc3nonc23)cc1` [Compound 398, (S)-6-AMINO-2-(BENZO[1,2,5]OXADIAZOLE-4-SULFONYLAMINO)-HEXANOIC ACID P-TOLYLAMIDE]: over 50 µM; `Cc1ccc(NC(=O)C(CCCC(=O)O)NC(=O)OCC2c3ccccc3-c3ccccc32)cc1` [Compound 402, (S)-5-(9H-FLUOREN-9-YLMETHOXYCARBONYLAMINO)-5-P-TOLYLCARBAMOYL-PENTANOIC ACID]: over 50 µM; `Cc1ccc(NC(=O)C(CCCCN)NC(=O)CCc2c[nH]c3ccccc23)cc1` [Compound 89, (S)-6-AMINO-2-(3-1H-INDOL-3-YL-PROPIONYLAMINO)-HEXANOIC ACID P-TOLYLAMIDE]: over 50 µM.
Compound `COC(=O)[C@H](Cc1c[nH]c2ccccc12)NC(=O)[C@H](CCCCNC(=O)OC(C)(C)C)NC(=O)OCC1c2ccccc2-c2ccccc21` [Compound 30, (S)-2-[6-TERT-BUTOXYCARBONYLAMINO-2-(S)-((9H-FLUOREN-9-YLMETHOXYCARBONYL)AMINO)-HEXANOYL-AMINO]-3-(1H-INDOL-3-YL)-PROPIONIC ACID METHYL ESTER] (Fmoc-Lys(Boc)-Trp-OMe) gave an IC50 of over 50 µM.
Take `NCCCC[C@H](NC(=O)OCC1c2ccccc2-c2ccccc21)C(=O)Nc1cccc(F)c1` [Compound 80, (S)-[5-AMINO-1-(3-FLUORO-PHENYLCARBAMOYL)-PENTYL]-CARBAMIC ACID 9H-FLUOREN-9-YLMETHYL ESTER]: the IC50 is over 50 µM.
The value for `Cc1ccc(NC(=O)C(CCCCN)NC(=O)Nc2ccc(C(=O)c3ccccc3)cc2)cc1` [Compound 75, (S)-6-AMINO-2-[3-(4-BENZOYL-PHENYL)-UREIDO]-HEXANOIC ACID P-TOLYLAMIDE] was over 50 µM.
The value for `Cc1ccc(NC(=O)C(CCCCN)NC(=O)OCc2ccccc2)cc1` [Compound 403, (S)-(5-AMINO-1-P-TOLYLCARBAMOYL-PENTYL)-CARBAMIC ACID BENZYL ESTER] was over 50 µM.
Next, `Cc1ccc(NC(=O)C(CCCCN)NC(=O)Nc2ccc(CN(C)c3ccc([N+](=O)[O-])cc3)cc2)cc1` [Compound 251, (S)-6-AMINO-2-[3-(4-{[METHYL-(4-NITRO-PHENYL)-AMINO]-METHYL}-PHENYL)-UREIDO]-HEXANOIC ACID P-TOLYLAMIDE]: under 10 µM; `NCCCC[C@H](NC(=O)Nc1ccc(OCc2ccccc2)cc1)C(=O)Nc1ccc2c(c1)CCC2` [Compound 283, (S)-6-AMINO-2-[3-(4-BENZYLOXY-PHENYL)-UREIDO]-HEXANOIC ACID INDAN-5-YLAMIDE]: 10 to 50 µM; `Cc1cc2cc(NC(=O)CN(CCCCN)C(=O)OCC3c4ccccc4-c4ccccc43)ccc2[nH]1` [Compound 295, (4-AMINO-BUTYL)-[(2-METHYL-1H-INDOL-5-YLCARBAMOYL)-METHYL]-CARBAMIC ACID 9H-FLUOREN-9-YLMETHYL ESTER]: under 10 µM.
The compound `Cc1ccc(NC(=O)C(CC(=O)O)NC(=O)OCC2c3ccccc3-c3ccccc32)cc1` [Compound 371, (R)-3-(9H-FLUOREN-9-YLMETHOXYCARBONYLAMINO)-NR-P-TOLYL-[…]] yielded an IC50 of over 50 µM.
Next, `COc1ccc(C=Cc2ccc(NC(=O)N[C@@H](CCCCN)C(=O)Nc3ccc(C)cc3)cc2)cc1` [Compound 252, (S)-6-AMINO-2-(3-{4-[2-(4-METHOXY-PHENYL)-VINYL]-PHENYL}-UREIDO)-HEXANOIC ACID P-TOLYLAMIDE]: under 10 µM; `Cc1ccccc1NC(=O)C(CCCCN)NC(=O)OCC1c2ccccc2-c2ccccc21` [Compound 45, (S)-(5-AMINO-1-O-TOLYLCARBAMOYL-PENTYL)-CARBAMIC ACID 9H-FLUOREN-9-YLMETHYL ESTER]: over 50 µM; `Cc1ccc(NC(=O)[C@H](CCCCN)NC(=O)COc2ccc(Oc3ccccc3)cc2)cc1` [Compound 333, (S)-6-AMINO-2-[2-(4-PHENOXY-PHENOXY)-ACETYLAMINO]-HEXANOIC ACID P-TOLYLAMIDE]: over 50 µM.
The value for `Cc1ccc(NC(=O)[C@H](CCCCN)NC(=O)Nc2ccc(OCc3ccc(F)cc3)cc2)cc1` [Compound 250, (S)-6-AMINO-2-{3-[4-(4-FLUORO-BENZYLOXY)-PHENYL]-UREIDO}-HEXANOIC ACID P-TOLYLAMIDE] was 10 to 50 µM.
Next, `Cc1ccc(NC(=O)C(CCCCN)NC(=O)Nc2ccc(N3CCCCC3)cc2)cc1` [Compound 269, (S)-6-AMINO-2-[3-(4-PIPERIDIN-1-YL-PHENYL)-UREIDO]-HEXANOIC ACID P-TOLYLAMIDE]: over 50 µM; `NCCCC[C@H](NC(=O)Nc1ccc(OCc2ccccc2)cc1)C(=O)Nc1cccc2c1CCC2` [Compound 321, (S)-6-AMINO-2-[3-(4-BENZYLOXY-PHENYL)-UREIDO]-HEXANOIC ACID INDAN-4-YLAMIDE]: under 10 µM.
With `Cc1ccc(NC(=O)C(Cc2ccc(CN)cc2)NC(=O)Nc2ccc3c(c2)Cc2ccccc2-3)cc1` [Compound 147, (S)-3-(4-AMINOMETHYL-PHENYL)-2-[3-(9H-FLUOREN-2-YL)-UREIDO]-N-P-TOLYL-PROPIONAMIDE], the IC50 was under 10 µM.
The value for `Cc1cc2cc(NC(=O)[C@H](Cc3ccc(CN)cc3)NC(=O)Nc3ccc4c(c3)Cc3ccccc3-4)ccc2[nH]1` [Compound 235, (S)-3-(4-AMINOMETHYL-PHENYL)-2-[3-(9H-FLUOREN-2-YL)-UREIDO]-N-(2-METHYL-1H-INDOL-5-YL)-PROPIONAMIDE] was under 10 µM; that for `Cc1ccc(NC(=O)[C@H](CCCCN)NC(=O)CNc2ccc(F)cc2)cc1` [Compound 361, (S)-6-AMINO-2-[2-(4-FLUORO-PHENYLAMINO)-ACETYLAMINO]-HEXANOIC ACID P-TOLYLAMIDE] was over 50 µM.
Compound `NCCCCN(CC(=O)Nc1ccc(C2CCCCC2)cc1)C(=O)Nc1ccc(OCc2ccccc2)cc1` [Compound 323, 2-[1-(4-AMINO-BUTYL)-3-(4-BENZYLOXY-PHENYL)-UREIDO]-N-(4-CYCLOHEXYL-PHENYL)-ACETAMIDE] yielded an IC50 of over 50 µM.
Next, `Cc1ccc(NC(=O)C2CC(OC(=O)CN)CN2C(=O)OCC2c3ccccc3-c3ccccc32)cc1` [Compound 131, (S)-[4-(R)-(2-AMINO-ACETOXY)-2-P-TOLYLCARBAMOYL-PYRROLIDINE-1-CARBOXYLIC ACID 9H-FLUOREN-9-YLMETHYL ESTER]]: over 50 µM; `Cc1ccc(NC(=O)[C@H](CCCCN)NC(=O)CNCc2cccc(F)c2)cc1` [Compound 345, (S)-6-AMINO-2-[2-(3-FLUORO-BENZYLAMINO)-ACETYLAMINO]-HEXANOIC ACID P-TOLYLAMIDE]: over 50 µM.
Next, `NCCCC[C@H](NC(=O)OCC1c2ccccc2-c2ccccc21)C(=O)NCCc1c[nH]c2ccccc12` [Compound 57, (S)-{5-AMINO-1-[2-(1H-INDOL-3-YL)-ETHYLCARBAMOYL]-PENTYL}-CARBAMIC ACID 9H-FLUOREN-9-YLMETHYL ESTER]: over 50 µM.
The value for `Cc1ccc(NC(=O)C(CC(=O)O)NC(=O)OCC2c3ccccc3-c3ccccc32)cc1` [Compound 370, (S)-3-(9H-FLUOREN-9-YLMETHOXYCARBONYLAMINO)-NR-P-TOLYL-[…]] was over 50 µM; that for `COc1ccc(C[C@H](N)C(=O)Nc2ccc(CN(C(=O)c3ccco3)C3CCCCC3)cc2)cc1` [Compound 9, (S)-FURAN-2-CARBOXYLIC ACID {4-[2-AMINO-3-(4-METHOXY-PHENYL)-PROPIONYLAMINO]-BENZYL}-CYCLOHEXYL-AMIDE] was over 50 µM; that for `Cc1ccc(NC(=O)[C@H](CCCCN)NC(=O)Nc2ccc(NCc3ccccc3)cc2)cc1` [Compound 224, (S)-6-AMINO-2-[3-(4-BENZYLAMINO-PHENYL)-UREIDO]-HEXANOIC ACID P-TOLYLAMIDE] was 10 to 50 µM.
`Cc1ccc(NC(=O)C(CCCCN)NC(=O)NCCc2ccc(-c3ccccc3)cc2)cc1` [Compound 76, (S)-6-AMINO-2-[3-(2-BIPHENYL-4-YL-ETHYL)-UREIDO]-HEXANOIC ACID P-TOLYLAMIDE] came in with an IC50 of 10 to 50 µM.
The value for `Cc1ccc(NC(=O)C2CC(OC(=O)CCN)CN2C(=O)OCC2c3ccccc3-c3ccccc32)cc1` [Compound 130, (S)-(4-(R)-(3-AMINO-PROPIONYLOXY)-2-P-TOLYLCARBAMOYL-PYRROLIDINE-1-CARBOXYLIC ACID 9H-FLUOREN-9-YLMETHYL ESTER)] was over 50 µM; that for `N[C@@H](Cc1ccccc1)C(=O)Nc1ccc(CN(C(=O)c2ccco2)C2CCCCC2)cc1` [Compound 10, (S)-FURAN-2-CARBOXYLIC ACID [4-(2-AMINO-3-PHENYL-PROPIONYLAMINO) -BENZYL]-CYCLOHEXYL-AMIDE] was over 50 µM.
The value for `Cc1ccc(NC(=O)[C@H](CCCCN)NC(=O)Nc2ccc(OCc3ccncc3)cc2)cc1` [Compound 279, (S)-6-AMINO-2-{3-[4-(PYRIDIN-4-YLMETHOXY)-PHENYL]-UREIDO}-HEXANOIC ACID P-TOLYLAMIDE] was over 50 µM; that for `CC(C)(C)Oc1ccc(C[C@H](N)C(=O)Nc2ccc(CN(C(=O)c3ccco3)C3CCCCC3)cc2)cc1` [Compound 8, (S)-FURAN-2-CARBOXYLIC ACID {4-[2-AMINO-3-(4-TERT-BUTOXY-PHENYL)-PROPIONYLAMINO]-BENZYL}-CYCLOHEXYL-AMIDE] was over 50 µM.
The value for `Cc1ccc(NCC(=O)N[C@@H](CCCCN)C(=O)Nc2ccc(C)cc2)cc1` [Compound 356, (S)-6-AMINO-2-(2-P-TOLYLAMINO-ACETYLAMINO)-HEXANOIC ACID P-TOLYLAMIDE] was over 50 µM.
Regarding `Cc1ccc(NC(=O)[C@@H](CCCCN)NC(=O)NCc2ccc(Cl)c(Cl)c2)cc1` [Compound 170, (R)-6-AMINO-2-[3-(3,4-DICHLORO-BENZYL)-UREIDO]-HEXANOIC ACID P-TOLYLAMIDE], the IC50 is over 50 µM.
The value for `COC(=O)C(Cc1c[nH]c2ccccc12)NC(=O)[C@H](CCCCN)NC(=O)OCC1c2ccccc2-c2ccccc21` (mixture of isomers) [Compound 55, (+/−)-2-[6-AMINO-2-(S)-((9H-FLUOREN-9-YLMETHOXYCARBONYL)AMINO)-HEXANOYL-AMINO]-3-(1H-INDOL-3-YL)-PROPIONIC ACID METHYL ESTER] was over 50 µM.

Broadly, the IC50 is the midpoint of a concentration-inhibition curve. Low readings indicate greater potency, high ones weaker potency.
